Reference: patent US20230107216A1, “PANTETHEINE DERIVATIVES AND USES THEREOF” (Comet Therapeutics, Inc., priority 2018, published 2023)
Where two headings read alike, the source gives them in different places.

Columns and labels:
[1] = tested on: Methylmalonic Acidemia (MMA) primary fibroblasts Tsi 5224; test: Mitochondrial respiration, XFe96 Extracellular Flux Analyzer (OCR/ECAR), MMA fibroblasts Tsi 5224; assay type: cell-based; details: Homo sapiens, Fibroblast;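 on Increase in Maximal Respiratory Capacity AUC: relative to vehicle DMSO control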
How it was run: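 Primary fibroblasts (20000 cells/well) were held 24 h in supplemented DMEM before Seahorse OCR/ECAR profiling. Compounds at 10 to 50 μM or 0.1% DMSO were injected after baseline, then oligomycin 1 μg/ml, FCCP, and rotenone/antimycin A 0.5 μM. Values were normalized to Hoechst nuclear counts, baselined to pre-compound, and expressed relative to vehicle.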

[2] = tested on: monocyte-derived M1 macrophages; test: M1 differentiation assay (macrophage TNFα, IL6, IL10 ELISA, FACS); assay type: cell-based, human; details: for activation at 10 µM / inhibition at 10 µM / activation at 50 µM / inhibition at 50 µM: Homo sapiens, Macrophage; for activation at 10 µM / activation at 50 µM: read-out: % Increase in IL-10 Secretion
How it was run: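 CD14+ human blood monocytes (100,000) differentiated 6 days with 10 ng/ml GM-CSF plus compound at 10 or 50 μM, refreshed days 2 and 4. Matured 24 h with GM-CSF, IFNγ, LPS plus compound. Supernatant TNFα, IL6, IL10 by ELISA; FACS M1 phenotype CD86+CD68+CD163−.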

[3] = tested on: Propionic Acidemia (PA) primary fibroblasts GM00371; test: Mitochondrial respiration, XFe96 Extracellular Flux Analyzer (OCR/ECAR), PA fibroblasts GM00371; assay type: cell-based; details: Homo sapiens, Fibroblast, read-out: Increase in Maximal Respiratory Capacity AUC
[4] = MMA Tsi 5224, assay condition A (10 mM glucose, 2 mM L-glutamine, 1 mM pyruvate, 10% FBS), read-out: Increase in Maximal Respiratory Capacity AUC
[5] = 10 uM, read-out: % decrease in Macrophage IL-6 Secretion
[6] = 10 uM, read-out: % decrease in Macrophage TNFα Secretion
[7] = MMA Tsi 5224, assay condition D (1 mM glucose, 10% FBS), read-out: Increase in Maximal Respiratory Capacity AUC
[8] = MMA Tsi 5224, assay condition D (1 mM glucose, 10% FBS), read-out: Increase in Spare Capacity AUC
[9] = 50 uM, read-out: % decrease in Macrophage IL-6 Secretion
[10] = assay condition C (10 mM glucose, 10% FBS)

Row | Structure (SMILES) | activation at 10 µM ([2]; 10 uM) [%] | inhibition at 10 µM [2, 5] [%] | inhibition at 10 µM [2, 6] [%] | activation at 10 µM [1, 7] [%] | other results
1 | CC(C)(CO)[C@@H](O)C(=O)NCCC(=O)NCCSC(=O)CC(O)C(=O)O (stereo partly drawn) [Compound 39] | ≥ 30 | ≥ 30 | ≥ 30 | – | activation at 10 µM [1, 4]: ≥ 10%; % Increase in Live Macrophage Cells ([2]; 10 uM): ≥20%
2 | C[C@@H](O)CC(=O)CC(=O)SCCNC(=O)CCNC(=O)[C@H](O)C(C)(C)CO [Compound 42, (2R)-2,4-dihydroxy-N-[2-[(2-[[(5R)-5-hydroxy-3-oxohexanoyl]sulfanyl]ethyl)carbamoyl]ethyl]-3,3-dimethylbutanamide] | – | – | – | – | activation at 10 µM [1, 4]: ≥ 10%
3 | CC(=O)SCCNC(=O)CCNC(=O)[C@H](O)C(C)(C)COC(=O)CCC(=O)O [Compound 1242, (R)-12-hydroxy-13,13-dimethyl-2,7,11,16-tetraoxo-15-oxa-3-thia-6,10-diazanonadecan-19-oic acid] | ≥ 30 | ≥ 30 | ≥ 30 | ≥ 10 | % decrease in Live Macrophage Cells ([2]; 10 uM): ≥20%
4 | CC(O)CC(O)CC(O)CC(=O)SCCNC(=O)CCNC(=O)[C@H](O)C(C)(C)CO (stereo partly drawn) [Compound 401] | – | – | ≥ 30 | – | % decrease in Live Macrophage Cells ([2]; 50 uM): ≥20%
5 | COC(=O)C(C)C(=O)SCCNC(=O)CCNC(=O)[C@H](O)C(C)(C)CO (stereo partly drawn) [Compound 405] | ≥ 30 | ≥ 30 | ≥ 30 | – | % decrease in IL-10 Secretion ([2]; 50 uM): ≥30%; % decrease in Live Macrophage Cells ([2]; 50 uM): ≥20%
6 | CC(C)(CO)[C@@H](O)C(=O)NCCC(=O)NCCSC(=O)C1CCC(=O)N1 (stereo partly drawn) [Compound 1227, S-2-{3-[(R)-2,4-dihydroxy-3,3-dimethylbutyrylamino]propionylamino}ethyl 5-oxo-2-pyrrolidinecarbothioate] | ≥ 30 | – | ≥ 30 | ≥ 10 | activation at 10 µM [1, 8]: ≥ 10%
7 | CC(C)(COC(=O)CCC(=O)O)[C@@H](O)C(=O)NCCC(=O)NCCS [Compound 1310, (R)-4-(3-hydroxy-4-((3-((2-mercaptoethyl)amino)-3-oxopropyl)amino)-2,2-dimethyl-4-oxobutoxy)-4-oxobutanoic acid] | – | ≥ 30 | ≥ 30 | – | activation at 50 µM ([2]; 50 uM): ≥ 30%
8 | CC1(CC(=O)SCCNC(=O)CCNC(=O)[C@H](O)C(C)(C)CO)OCCO1 [Compound 1252, (R)—S-(2-(3-(2,4-dihydroxy-3,3-dimethylbutanamido)propanamido)ethyl)-2-(2-methyl-1,3-dioxolan-2-yl)ethanethioate] | – | ≥ 30 | ≥ 30 | ≥ 10 | % decrease in Live Macrophage Cells ([2]; 50 uM): ≥20%; activation at 50 µM ([2]; 50 uM): ≥ 30%
9 | COC(=O)CCC(=O)SCCNC(=O)CCNC(=O)[C@H](O)C(C)(C)CO [Compound 4, Methyl (R)-4-((2-(3-(2,4-dihydroxy-3,3-dimethylbutanamido)propanamido)ethyl)thio)-4-oxobutanoate] | – | – | ≥ 30 | ≥ 10 | activation at 10 µM [1, 4]: ≥ 10%; activation at 10 µM [1, 8]: ≥ 10%
10 | COC(=O)/C=C/C(=O)SCCNC(=O)CCNC(=O)[C@H](O)C(C)(C)COP(=O)(O)O [Compound 73, methyl (R,E)-4-((2-(3-(2-hydroxy-3,3-dimethyl-4-(phosphonooxy)butanamido)propanamido)ethyl)thio)-4-oxobut-2-enoate] | – | – | ≥ 30 | ≥ 10 | inhibition at 50 µM [2, 9]: ≥ 30%
11 | CC(C)(CO)[C@@H](OC(=O)CCC(=O)O)C(=O)NCCC(=O)NCCS [Compound 1311, (R)-4-((4-hydroxy-1-((3-((2-mercaptoethyl)amino)-3-oxopropyl)amino)-3,3-dimethyl-1-oxobutan-2-yl)oxy)-4-oxobutanoic acid] | – | ≥ 30 | ≥ 30 | ≥ 10 | activation at 10 µM [1, 4]: ≥ 10%; % decrease in IL-10 Secretion ([2]; 50 uM): ≥30%; activation at 50 µM ([2]; 50 uM): ≥ 30%
12 | CC(=O)SCCNC(=O)CCNC(=O)[C@H](O)C(C)(C)COC(=O)[C@H](C)N [Compound 502, (3R)-3-[(2-[[2-(acetylsulfanyl)ethyl]carbamoyl]ethyl)carbamoyl]-3-hydroxy-2,2-dimethylpropyl (2S)-2-aminopropanoate] | – | – | – | – | activation at 10 µM ([3]; assay condition A (10 mM glucose, 2 mM L-glutamine, 1 mM pyruvate, 10% FBS), 10 μM): ≥ 30%; activation at 50 µM ([3]; assay condition A (10 mM glucose, 2 mM L-glutamine, 1 mM pyruvate, 10% FBS)): ≥ 10%
13 | CC(C)=CC(=O)SCCNC(=O)CCNC(=O)[C@H](O)C(C)(C)CO [Compound 37, S-2-{3-[(R)-2,4-dihydroxy-3,3-dimethylbutyrylamino]propionylamino}ethyl 3-methyl-2-butenethioate] | – | – | ≥ 30 | ≥ 10 | % decrease in IL-10 Secretion ([2]; 10 uM): ≥30%; inhibition at 50 µM [2, 9]: ≥ 30%
14 | C[C@@H](O)CC(=O)SCCNC(=O)CCNC(=O)[C@H](O)C(C)(C)CO [Compound 38, S-2-{3-[(R)-2,4-dihydroxy-3,3-dimethylbutyrylamino]propionylamino} ethyl (R)-3-hydroxybutanethioate] | ≥ 30 | ≥ 30 | ≥ 30 | ≥ 10 | % Increase in Live Macrophage Cells ([2]; 50 uM): ≥20%
15 | CC[C@@H](O)CC(=O)SCCNC(=O)CCNC(=O)[C@H](O)C(C)(C)CO [Compound 1245, (2R)-2,4-dihydroxy-N-{2-[(2-{[(3R)-3-hydroxypentanoyl]sulfanyl}ethyl)carbamoyl]ethyl}-3,3-dimethylbutanamide] | ≥ 30 | ≥ 30 | ≥ 30 | – | –
16 | CC(C)C(=O)CC(=O)SCCNC(=O)CCNC(=O)[C@H](O)C(C)(C)CO [Compound 1239, (R)—S-(2-(3-(2,4-dihydroxy-3,3-dimethylbutanamido)propanamido)ethyl) 4-methyl-3-oxopentanethioate] | ≥ 30 | ≥ 30 | ≥ 30 | ≥ 10 | % Increase in Live Macrophage Cells ([2]; 10 uM): ≥20%
17 | CCCCCCC(=O)SCCNC(=O)CCNC(=O)[C@H](O)C(C)(C)CO [Compound 372, (2R)—N-(2-[[2-(heptanoylsulfanyl)ethyl]carbamoyl]ethyl)-2,4-dihydroxy-3,3-dimethylbutanamide] | – | – | – | – | activation at 50 µM [3, 10]: ≥ 10%
18 | CC(O)CC(O)CC(=O)SCCNC(=O)CCNC(=O)[C@H](O)C(C)(C)CO (stereo partly drawn) [Compound 400] | ≥ 30 | – | – | ≥ 10 | inhibition at 50 µM ([2]; 50 uM, read-out: % decrease in Macrophage TNFα Secretion): ≥ 30%
19 | CC(C(=O)SCCNC(=O)CCNC(=O)[C@H](O)C(C)(C)CO)[C@@H](C)O (stereo partly drawn) [Compound 1244, (2R)-2,4-dihydroxy-N-{2-[(2-{[(3R)-3-hydroxy-2-methylbutanoyl]sulfanyl}ethyl)carbamoyl]ethyl}-3,3-dimethylbutanamide] | – | ≥ 30 | ≥ 30 | – | activation at 10 µM [1, 4]: ≥ 10%
20 | C/C=C/C(=O)SCCNC(=O)CCNC(=O)[C@H](O)C(C)(C)COP(=O)(O)O [Compound 82, (R)—S-(2-(3-(2-hydroxy-3,3-dimethyl-4-(phosphonooxy)butanamido)propanamido)ethyl) (E)-but-2-enethioate] | – | – | ≥ 30 | ≥ 10 | inhibition at 50 µM [2, 9]: ≥ 30%
21 | CCC(C)C(=O)CC(=O)SCCNC(=O)CCNC(=O)[C@H](O)C(C)(C)CO (stereo partly drawn) [Compound 1240, S-(2-(3-((R)-2,4-dihydroxy-3,3-dimethylbutanamido)propanamido)ethyl) 4-methyl-3-oxohexanethioate] | – | ≥ 30 | ≥ 30 | ≥ 10 | activation at 10 µM [1, 4]: ≥ 10%; % Increase in Live Macrophage Cells ([2]; 10 uM): ≥20%; activation at 50 µM ([2]; 50 uM): ≥ 30%
22 | C[C@H](CC(=O)SCCNC(=O)CCNC(=O)[C@H](O)C(C)(C)CO)OC(=O)CCC(=O)O [Compound 1243, 4-{[(2R)-4-[(2-{3-[(2R)-2,4-dihydroxy-3,3-dimethylbutanamido]propanamido}ethyl)sulfanyl]-4-oxobutan-2-yl]oxy}-4-oxobutanoic acid] | – | – | ≥ 30 | – | activation at 10 µM ([1]; MMA Tsi 5224, assay condition A (10 mM glucose, 2 mM L-glutamine, 1 mM pyruvate, 10% FBS), read-out: Increase in Spare Capacity AUC): ≥ 10%
23 | CC(=O)OCC(C)(C)[C@@H](O)C(=O)NCCC(=O)NCCSC(=O)CC(=O)CCC(=O)O [Compound 140, 6-[(2-[3-[(2R)-4-(acetyloxy)-2-hydroxy-3,3-dimethylbutanamido]propanamido]ethyl)sulfanyl]-4,6-dioxohexanoic acid] | – | – | – | – | activation at 50 µM [3, 10]: ≥ 10%
